In the NIST ThermoML archive (doi:10.1016/j.fluid.2018.08.012):
Several values for one entry are separate records, joined by “and”; a condition that tells them apart may be missing. Identical values can stand only once.

Test: mn = molality of the nth substance listed, in mol/kg
Conditions: Fluid (supercritical or subcritical phases), Vibrating tube method, m1 = 0.2322

S=C=S [carbon disulfide] + O=C=O
Conditions	mass density
324.09 K, 5020 kPa	107.03 kg/m3
324.09 K, 5037.7 kPa	107.14 kg/m3
324.09 K, 7541 kPa	199.79 kg/m3
324.09 K, 7551.5 kPa	199.54 kg/m3
324.09 K, 10053 kPa	403.53 kg/m3
324.09 K, 10060 kPa	402.21 kg/m3
324.09 K, 12570 kPa	624.02 kg/m3
324.09 K, 12604 kPa	625.07 kg/m3
324.09 K, 15125 kPa	707.48 kg/m3
324.09 K, 15142 kPa	707.56 kg/m3
324.09 K, 17653 kPa	755.16 kg/m3
324.09 K, 17669 kPa	755.21 kg/m3
324.09 K, 20182 kPa	789.28 kg/m3
324.09 K, 20197 kPa	789.34 kg/m3
324.09 K, 22699 kPa	815.92 kg/m3
324.09 K, 22712 kPa	815.94 kg/m3
324.09 K, 25212 kPa	837.95 kg/m3
324.09 K, 25226 kPa	837.97 kg/m3
324.09 K, 27728 kPa	856.85 kg/m3
324.09 K, 27741 kPa	856.86 kg/m3
324.09 K, 30237 kPa	873.42 kg/m3
324.09 K, 30252 kPa	873.43 kg/m3
324.09 K, 32734 kPa	888.17 kg/m3
324.09 K, 32750 kPa	888.17 kg/m3
324.09 K, 35219 kPa	901.47 kg/m3
324.09 K, 35227 kPa	901.44 kg/m3
349.43 K, 5049.6 kPa	92.26 kg/m3
349.43 K, 5059.9 kPa	92.17 kg/m3
349.43 K, 7561.3 kPa	154.46 kg/m3
349.43 K, 7565.2 kPa	155.4 kg/m3
349.43 K, 10072 kPa	237.91 kg/m3
349.43 K, 10079 kPa	236.77 kg/m3
349.43 K, 12659 kPa	351.82 kg/m3
349.43 K, 12682 kPa	350.77 kg/m3
349.43 K, 15194 kPa	474.54 kg/m3
349.43 K, 15210 kPa	471.73 kg/m3
349.43 K, 17724 kPa	568.76 kg/m3
349.43 K, 17738 kPa	565.77 kg/m3
349.43 K, 20245 kPa	633.49 kg/m3
349.43 K, 20260 kPa	630.9 kg/m3
349.43 K, 22769 kPa	680.4 kg/m3
349.43 K, 22783 kPa	678.14 kg/m3
349.43 K, 25280 kPa	716.41 kg/m3
349.43 K, 25300 kPa	714.54 kg/m3
349.43 K, 27790 kPa	745.77 kg/m3
349.43 K, 27805 kPa	744.03 kg/m3
349.43 K, 30301 kPa	770.42 kg/m3
349.43 K, 30313 kPa	768.82 kg/m3
349.43 K, 32807 kPa	791.68 kg/m3
349.43 K, 32815 kPa	790.19 kg/m3
349.43 K, 35294 kPa	808.86 kg/m3
349.43 K, 35296 kPa	810.28 kg/m3
374.78 K, 5066.1 kPa	82.47 kg/m3
374.78 K, 5070.7 kPa	82.42 kg/m3
374.78 K, 7581.5 kPa	133.35 kg/m3
374.78 K, 7585 kPa	133.32 kg/m3
374.78 K, 10086 kPa	191.97 kg/m3
374.78 K, 10088 kPa	191.92 kg/m3
374.78 K, 15040 kPa	335.44 kg/m3
374.78 K, 15062 kPa	335.78 kg/m3
374.78 K, 17568 kPa	413.55 kg/m3
374.78 K, 17587 kPa	413.86 kg/m3
374.78 K, 20094 kPa	484.4 kg/m3
374.78 K, 20111 kPa	484.48 kg/m3
374.78 K, 22615 kPa	543.66 kg/m3
374.78 K, 22634 kPa	543.72 kg/m3
374.78 K, 25138 kPa	592.09 kg/m3
374.78 K, 25153 kPa	592 kg/m3
374.78 K, 27657 kPa	631.81 kg/m3
374.78 K, 27672 kPa	631.68 kg/m3
374.78 K, 30176 kPa	665.02 kg/m3
374.78 K, 30185 kPa	664.78 kg/m3
374.78 K, 32689 kPa	693.03 kg/m3
374.78 K, 32690 kPa	693.42 kg/m3
374.78 K, 35184 kPa	717.46 kg/m3
374.78 K, 35192 kPa	717.92 kg/m3
400.5 K, 5077 kPa	75.32 kg/m3
400.5 K, 5080.3 kPa	74.8 kg/m3
400.5 K, 7594.6 kPa	118.07 kg/m3 and 118.35 kg/m3
400.5 K, 10099 kPa	166.1 kg/m3
400.5 K, 10100 kPa	165.54 kg/m3
400.5 K, 15048 kPa	272.65 kg/m3
400.5 K, 15074 kPa	273.42 kg/m3
400.5 K, 17570 kPa	330.78 kg/m3
400.5 K, 17602 kPa	331.7 kg/m3
400.5 K, 20096 kPa	388.17 kg/m3
400.5 K, 20129 kPa	389.15 kg/m3
400.5 K, 22617 kPa	441.87 kg/m3
400.5 K, 22654 kPa	442.82 kg/m3
400.5 K, 25139 kPa	490.19 kg/m3
400.5 K, 25176 kPa	491.09 kg/m3
400.5 K, 27660 kPa	532.79 kg/m3
400.5 K, 27688 kPa	533.55 kg/m3
400.5 K, 30177 kPa	569.95 kg/m3
400.5 K, 30206 kPa	570.64 kg/m3
400.5 K, 32686 kPa	602.4 kg/m3
400.5 K, 32712 kPa	602.99 kg/m3
400.5 K, 35192 kPa	631.01 kg/m3
400.5 K, 35205 kPa	631.44 kg/m3
